Data on eight molecules can be found in paper PMC11997890, “In Vivo and In Vitro Pharmacokinetic Studies of a Dual Topoisomerase I/II Inhibitor” (ACS Pharmacology & Translational Science, 2025).

Structures are written as SMILES. Where only a bound is given, the exact number is not on record here.

The subject of one series is OvCar8 spheroids. Briefly: 3D spheroid viability (RealTime-Glo). It counts as cell-based, human. The following applies: OvCar8 3D spheroids, 48 h. As for the experimental part:
Tumor complexity is represented more realistically in 3D spheroid models than in 2D monolayer models.
OvCar8 cells (8000/well) were seeded into an Ultra-Low-Attachment plate (Corning #4520) and grown for 96 h. Then, spheroids were treated with the drugs for 48 h. Cell cytotoxicity was assessed using the CellTox Green Cytotoxicity Assay (Promega #G8731) 48 h after treatment with NYONE ([…], 485Ex/520Em). Filters: BFEx/GreenEm (530/43 nm); BlueEx (475/28 nm)/GreenEm (530/43 nm). Viability and apoptosis were determined by RealTime-Glo (460Em) (Promega #G9711) and caspase-Glo 3/7 (565Em) (Promega #G8090) according to the manufacturer’s instructions using a microplate reader (Spark, Tecan). Relative caspase activity: caspase activity divided by the viability (normalized to control). For live-dead staining, cells were grown and treated as described above. Then, 80% of the medium was removed and replaced with propidium iodide (PI) (15 μM), calcein-AM (0.2 μM), and Hoechst 33342 (1.8 μM) in medium for 3 h and imaged by NYONE ([…]). Filters: BFEx/GreenEm(530/43 nm); Hoechst 33342: UVEx (377/50 nm)/BlueEm (452/45 nm); calcein-AM: BlueEx (475/28 nm)/GreenEm (530/43 nm); propidium iodide: LimeEx(562/40 nm)/RedEm(628/32 nm). All experiments were performed in biological triplicates. PBS was used as the negative control, and cisplatin and P8-D6 as the positive control.

The conditions of series [1]: cited from earlier work; for Protein binding / CL / Oral bioavailability / V ss / t 1/2: literature values, ref numbers not given.
Another series deals with CYP3A4. Also on record: method as in not given. The note with it: metabolized by CYP3A4; ref not given; cited from earlier work.
Details of series [2]: method as in not given. The following applies: human liver microsomes; ref not given; cited from earlier work. (In general: Liver microsomes are a subcellular fraction often used to study metabolism.)

On to `N.N.[Cl][Pt][Cl]` [cisplatin, reference compound], for which the concentration for half-maximal inhibition (IC50) with OvCar8 spheroids amounted to 13.5 µM.

With `CCc1c2c(nc3ccc(OC(=O)N4CCC(N5CCCCC5)CC4)cc13)-c1cc3c(c(=O)n1C2)COC(=O)[C@]3(O)CC` [irinotecan], the Protein binding in series [1] is 65%.

For the molecule `COc1cc([C@@H]2c3cc4c(cc3[C@@H](O[C@@H]3O[C@@H]5CO[C@@H](C)O[C@H]5[C@H](O)[C@H]3O)[C@H]3COC(=O)[C@H]23)OCO4)cc(OC)c1O` [etoposide], in series [1], the CL is 1–2 L/(h m^2), the Oral bioavailability was 50 (40–75) %, the Protein binding is recorded as 94–95% and the V ss is reported as 7.1 (5–17) L/m^2. For the same molecule, the “t 1/2” value in series [1] is 6.4 h.

Consider `CC[C@@]1(O)C(=O)OCc2c1cc1n(c2=O)Cc2c-1nc1cc3c(cc1c2CN1CCN(C)CC1)OCCO3` [lurtotecan], for which, in series [1], the CL is given as 60 L/(h m^2), the Oral bioavailability was 11.3 ± 5.2%, the Protein binding was 90% and the V ss is reported as 190 L/m^2. In series [1], the “t 1/2” value was 3.7 h.

Turning to `COc1cc2ncnc(Nc3ccc(F)c(Cl)c3)c2cc1OCCCN1CCOCC1` [gefitinib], the Protein binding in series [1] is recorded as above 97%.

On to `O=C(c1cc(Cc2n[nH]c(=O)c3ccccc23)ccc1F)N1CCN(C(=O)C2CC2)CC1` [Olaparib, olaparib], for which the “rate of three major metabolites” value in the series with CYP3A4 is 8–12%.

In the case of `COc1cccc2c1C(=O)c1c(O)c3c(c(O)c1C2=O)C[C@@](O)(C(=O)CO)C[C@@H]3O[C@H]1C[C@H](N)[C@H](O)[C@H](C)O1` [doxorubicin], the drug eliminated in series [1] (after 7 days, ref not given) was 25–45%. Further, in series [1], the CL is 12–34 L/(h m^2), the Oral bioavailability was 5%, the Protein binding is on record as 50–85% and the V ss is listed as 809–1214 L/m^2. For the same molecule, the “t 1/2” value in series [1] was 17.3 to 26 h.

As for `CC[C@@]1(O)C(=O)OCc2c1cc1n(c2=O)Cc2cc3c(CN(C)C)c(O)ccc3nc2-1` [topotecan], the “mean ratio of N-demethylated metabolite to topotecan” value in series [2] is recorded as “approximately 3%”. Moreover, in series [1], the CL is on record as 14–34 L/(h m^2), the Oral bioavailability is listed as 32–44%, the Protein binding is reported as 7–35% and the “t 1/2” value is 3.1 to 4 h.

The term IC50 denotes the point on the concentration scale where inhibition reaches its midpoint.
